This note sets out measurements from US7101878B1 (Agouron Pharmaceuticals, Inc., priority 1998, dated 2006).

For this assay, the target named is T1, mouse GnRH receptor (Mus musculus, UniProt Q01776).
T1 construct: expressed in transfected cells; host or cells: 293 cells
T1 sequence (Q01776 1-327): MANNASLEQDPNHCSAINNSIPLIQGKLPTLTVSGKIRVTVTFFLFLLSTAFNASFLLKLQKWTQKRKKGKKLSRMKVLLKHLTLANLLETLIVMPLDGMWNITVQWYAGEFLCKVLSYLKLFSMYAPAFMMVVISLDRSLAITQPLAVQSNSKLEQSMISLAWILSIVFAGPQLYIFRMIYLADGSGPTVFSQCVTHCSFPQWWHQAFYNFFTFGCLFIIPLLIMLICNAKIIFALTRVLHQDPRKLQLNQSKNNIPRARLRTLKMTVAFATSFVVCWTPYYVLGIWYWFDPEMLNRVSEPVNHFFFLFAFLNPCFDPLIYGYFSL
The experiment in a line: Radioligand binding, 125I-GnRH-A, 293 cells expressing mouse GnRH receptors. The following applies: 1 h, substrate remaining; 10 uM compound; closer to zero = closer to 100% inhibition; read-out: S%R 10 uM mGnRHR. The method in brief: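 Bound label captured on 0.1% polyethyleneimine-treated GF/C filters, washed three times with PBS, counted. IC50 derived; identical set-up for every species.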
In the case of `Cc1cc2c(cc1Cc1ccc(C(=O)NC3CCS(=O)(=O)C3)o1)C(C)(C)CCC2(C)C` (stereo not drawn) [Compound 626], the remaining activity at 10 µM stood at 10%. As to `Cc1cc2c(cc1Cc1ccc(C(=O)NCCCCCCN(C)C)o1)C(C)(C)CCC2(C)C` [Compound 627], the remaining activity at 10 µM was -6%.

`CCOC(=O)N1CCN(C(=O)c2ccc(Cc3cc4c(cc3C)C(C)(C)CCC4(C)C)o2)CC1` [Compound 628]: the remaining activity at 10 µM turned out to be 35%. Regarding `Cc1cc2c(cc1Cc1ccc(C(=O)N(Cc3ccccc3)C(C)C)o1)C(C)(C)CCC2(C)C` [Compound 629], the remaining activity at 10 µM is 17%.

Consider `Cc1cc2c(cc1Cc1ccc(C(=O)N(CCC(c3ccccc3)c3ccccc3)Cc3ccco3)o1)C(C)(C)CCC2(C)C` [Compound 630], for which the remaining activity at 10 µM was found to be 58%.

As to `Cc1cc2c(cc1Cc1ccc(C(=O)N(Cc3cccc4ccccc34)C3CCN(Cc4ccccc4)C3)o1)C(C)(C)CCC2(C)C` (stereo not drawn) [Compound 631], the remaining activity at 10 µM was 43%. For `Cc1cc2c(cc1Cc1ccc(C(=O)NCCc3ccc(F)cc3)o1)C(C)(C)CCC2(C)C` [Compound 632] the value was 21%; for `Cc1cc2c(cc1Cc1ccc(C(=O)NC(C)(C)CO)o1)C(C)(C)CCC2(C)C` [Compound 633], 10%. Turning to `Cc1cc2c(cc1Cc1ccc(C(=O)N3CCC4(C)CC(C)(C)CC45CC35)o1)C(C)(C)CCC2(C)C` (stereo not drawn) [Compound 634], the remaining activity at 10 µM is 1%.

Consider `Cc1cccc(N2CCN(C(=O)c3ccc(Cc4cc5c(cc4C)C(C)(C)CCC5(C)C)o3)CC2C)c1` (stereo not drawn) [Compound 635], for which the remaining activity at 10 µM came out at 27%. Take `Cc1cc2c(cc1Cc1ccc(C(=O)N(C)CCC#N)o1)C(C)(C)CCC2(C)C` [Compound 636]: the remaining activity at 10 µM was 17%.

Turning to `Cc1cc2c(cc1Cc1ccc(C(=O)N(Cc3ccccc3)[C@@H](C)c3ccccc3)o1)C(C)(C)CCC2(C)C` [Compound 637], the remaining activity at 10 µM was found to be 55%. For `Cc1cc2c(cc1Cc1ccc(C(=O)N(Cc3ccc(C(C)C)cc3)C3CCN(Cc4ccccc4)C3)o1)C(C)(C)CCC2(C)C` (stereo not drawn) [Compound 638] the value was 53%; for `Cc1cc2c(cc1Cc1ccc(C(=O)NC(C)c3ccc([N+](=O)[O-])cc3)o1)C(C)(C)CCC2(C)C` (stereo not drawn) [Compound 639], 57%.

`CSCCCNC(=O)c1ccc(Cc2cc3c(cc2C)C(C)(C)CCC3(C)C)o1` [Compound 640]: the remaining activity at 10 µM was 2%. `Cc1cc2c(cc1Cc1ccc(C(=O)N3CCC(O)CC3)o1)C(C)(C)CCC2(C)C` [Compound 641]: the remaining activity at 10 µM stood at 23%. For `Cc1cc2c(cc1Cc1ccc(C(=O)NCCc3ccc(Cl)cc3)o1)C(C)(C)CCC2(C)C` [Compound 642] the value was 19%; for `COc1ccc(CCNC(=O)c2ccc(Cc3cc4c(cc3C)C(C)(C)CCC4(C)C)o2)cc1Br` [Compound 643], 23%.

Regarding `CCN(Cc1ccc(C)cc1)C(=O)c1ccc(Cc2cc3c(cc2C)C(C)(C)CCC3(C)C)o1` [Compound 644], the remaining activity at 10 µM was determined as 22%. Then `Cc1cc2c(cc1Cc1ccc(C(=O)N(CCC(c3ccccc3)c3ccccc3)Cc3ccccn3)o1)C(C)(C)CCC2(C)C` [Compound 645], with 51%; and `CCN1CC(N(Cc2ccccc2C#N)C(=O)c2ccc(Cc3cc4c(cc3C)C(C)(C)CCC4(C)C)o2)CN1CC` [Compound 646], with 0%. For `COc1cc(OC)cc(N2CCN(C(=O)c3ccc(Cc4cc5c(cc4C)C(C)(C)CCC5(C)C)o3)CC2)c1` [Compound 647] the value was 35%; for `CSCCNC(=O)c1ccc(Cc2cc3c(cc2C)C(C)(C)CCC3(C)C)o1` [Compound 648], 4%; for `Cc1cc2c(cc1Cc1ccc(C(=O)N3CCC4(CC3)C(=O)NCN4c3ccccc3)o1)C(C)(C)CCC2(C)C` [Compound 649], 28%. As to `Cc1cc2c(cc1Cc1ccc(C(=O)NC3CCCCC3O)o1)C(C)(C)CCC2(C)C` (stereo not drawn) [Compound 650], the remaining activity at 10 µM came out at 4%. Turning to `Cc1cc2c(cc1Cc1ccc(C(=O)N3CCCC3C(=O)OCc3ccccc3)o1)C(C)(C)CCC2(C)C` (stereo not drawn) [Compound 651], the remaining activity at 10 µM is 15%. For `Cc1cc2c(cc1Cc1ccc(C(=O)N3CCC(NC(=O)OC(C)(C)C)C3)o1)C(C)(C)CCC2(C)C` (stereo not drawn) [Compound 652] the value was 19%; for `CCN1CC(N(Cc2ccc(N(C)C)cc2)C(=O)c2ccc(Cc3cc4c(cc3C)C(C)(C)CCC4(C)C)o2)CN1CC` [Compound 653], 6%. `Cc1cc2c(cc1Cc1ccc(C(=O)NC(C)(C)CC(C)(C)C)o1)C(C)(C)CCC2(C)C` [Compound 654]: the remaining activity at 10 µM turned out to be 34%. For `CCSCCNC(=O)c1ccc(Cc2cc3c(cc2C)C(C)(C)CCC3(C)C)o1` [Compound 655] the value was 2%; for `Cc1cc2c(cc1Cc1ccc(C(=O)N3CCC(O)(c4ccc(Br)cc4)CC3)o1)C(C)(C)CCC2(C)C` [Compound 656], 52%. As to `Cc1cc2c(cc1Cc1ccc(C(=O)N3CCCC(C)(C)C3)o1)C(C)(C)CCC2(C)C` [Compound 657], the remaining activity at 10 µM was found to be 3%. For `Cc1cc2c(cc1Cc1ccc(C(=O)N3CCN(Cc4ccc(C(C)(C)C)cc4)CC3)o1)C(C)(C)CCC2(C)C` [Compound 658] the value was 35%; for `Cc1cc2c(cc1Cc1ccc(C(=O)N3CCCC3C)o1)C(C)(C)CCC2(C)C` (stereo not drawn) [Compound 659], -2%. For `CCN1CC(N(CCC(C)CCCC(C)(C)O)C(=O)c2ccc(Cc3cc4c(cc3C)C(C)(C)CCC4(C)C)o2)CN1CC` (stereo not drawn) [Compound 660] the value was -4%; for `Cc1cc2c(cc1Cc1ccc(C(=O)N3CCC(NC(=O)C(F)(F)F)C3)o1)C(C)(C)CCC2(C)C` (stereo not drawn) [Compound 661], 41%. Then `COC(OC)C(C)NC(=O)c1ccc(Cc2cc3c(cc2C)C(C)(C)CCC3(C)C)o1` (stereo not drawn) [Compound 662], with 3%; and `COc1cccc(N2CCN(C(=O)c3ccc(Cc4cc5c(cc4C)C(C)(C)CCC5(C)C)o3)CC2C)c1` (stereo not drawn) [Compound 663], with 25%. In the case of `CCN(C(=O)c1ccc(Cc2cc3c(cc2C)C(C)(C)CCC3(C)C)o1)C1CCCCC1` [Compound 664], the remaining activity at 10 µM was determined as 1%. For `Cc1cc2c(cc1Cc1ccc(C(=O)N(Cc3cccnc3)Cc3ccco3)o1)C(C)(C)CCC2(C)C` [Compound 665] the value was 12%; for `CCC(CC)NC(=O)c1ccc(Cc2cc3c(cc2C)C(C)(C)CCC3(C)C)o1` [Compound 666], 24%. For `Cc1cc2c(cc1Cc1ccc(C(=O)N(CCc3ccccc3)Cc3ccoc3)o1)C(C)(C)CCC2(C)C` [Compound 667] the value was 39%.

Consider `CCN1CC(N(CCC(C)c2ccccc2)C(=O)c2ccc(Cc3cc4c(cc3C)C(C)(C)CCC4(C)C)o2)CN1CC` (stereo not drawn) [Compound 668], for which the remaining activity at 10 µM was 6%.

`CCCOCCNC(=O)c1ccc(Cc2cc3c(cc2C)C(C)(C)CCC3(C)C)o1` [Compound 669]: the remaining activity at 10 µM was -3%. `Cc1cc2c(cc1Cc1ccc(C(=O)N3CCC(n4c(=O)[nH]c5ccccc54)CC3)o1)C(C)(C)CCC2(C)C` [Compound 670]: the remaining activity at 10 µM is 16%.
